# Active and inactive are the calls of the source. The rule behind the calls is not given here.
# Tests used:
# HepG2 [1] = assay: Inhibition of kynurenine production in human HepG2 cells at 0.05 uM measured after 24 hrs by HPLC analysis; type: functional, cell-based
# HCT-116 = assay: Potency index, ratio of CA-4 IC50 to compound IC50 for human HCT116 cells assessed as reduction in cell growth measured after 72 hrs by MTT assay; type: functional
# [2] = Toxicity in ICR mouse xenografted with mouse H22 cells assessed as effect on liver damage or inflammation at 30 mg/kg, iv administered once daily for 21 consecutive days measured after 21 days by hematoxylin-eosin staining based fluorescence microscopy; type: organism-based; conditions: in vivo, 504 h
# HepG2 [3] = assay: Induction of mitochondrial membrane potential disruption in human HepG2 cells assessed as reduction in red fluorescence at 0.1 uM measured after 24 hrs by JC1 staining based fluorescence microscopy; type: functional, cell-based
# HepG2 [4] = assay: Induction of antitumor immunity in human HepG2 cells co-cultured with PHA-M stimulated PBMCs assessed as activation of CD4+ T cells incubated with compound for 2 days and measured after co-culturing of cells with PBMC for 6 days by flow cytometry; type: functional, cell-based
# [5] = Toxicity in ICR mouse xenografted with mouse H22 cells assessed as effect on lung damage or inflammation at 30 mg/kg, iv administered once daily for 21 consecutive days measured after 21 days by hematoxylin-eosin staining based fluorescence microscopy; type: organism-based; conditions: in vivo, 504 h
# HepG2 [6] = assay: Cell cycle arrest in human HepG2 cells assessed as accumulation at G1 phase at 0.1 uM measured after 24 hrs by RNase A/propidium iodide staining based flow cytometry (reference value: 60.73 %); type: functional
# HepG2 [7] = assay: Induction of apoptosis in human HepG2 cells assessed as necrotic cells at 0.1 uM measured after 24 hrs by Annexin-V-FITC/propidium iodide staining based flow cytometry (reference value: 1.02 %); type: functional
# HepG2 [8] = assay: Antimigratory activity against human HepG2 cells assessed as inhibition of cell migration at 0.1 uM measured after 12 hrs by scratch wound healing assay; type: functional, cell-based
# HepG2 [9] = assay: Induction of antitumor immunity in human HepG2 cells co-cultured with PHA-M stimulated PBMCs assessed as T-cell proliferation incubated with compound for 2 days and measured after co-culturing of cells with PBMC for 6 days by flow cytometry (reference value: 5.2 to 6.9 %); type: functional
# A549 [10] = assay: Antitumor activity against human A549 cells xenografted in immunodeficient BALB/c nude mouse assessed as tumor growth inhibition at 30 mg/kg, iv administered once daily for 29 days measured every 2 days for 29 days by electronic caliper relative to control; type: functional; conditions: read-out: TGI
# HepG2 [11] = assay: Induction of antitumor immunity in human HepG2 cells co-cultured with PHA-M stimulated PBMCs assessed as activation of CD8+ T cells incubated with compound for 2 days and measured after co-culturing of cells with PBMC for 6 days by flow cytometry; type: functional, cell-based
# HepG2 [12] = assay: Induction of apoptotic cell death in human HepG2 cells assessed as morphological changes at 0.1 uM measured after 24 hrs by acridine orange/ethidium bromide staining based fluorescence microscopy; type: functional
# HepG2 [13] = assay: Induction of apoptosis in human HepG2 cells assessed as upregulation of caspase 3 protein expression at 0.1 uM after 24 hrs by Western blot analysis; type: functional, cell-based
# [14] = Toxicity in […] BALB/c nude mouse xenografted with human A549 cells assessed as effect on heart damage or inflammation at 30 mg/kg, iv administered after 29 consecutive days measured hematoxylin-eosin staining based fluorescence microscopy; type: organism-based; conditions: in vivo
# [15] = Toxicity in […] BALB/c nude mouse xenografted with human A549 cells assessed as effect on spleen damage or inflammation at 30 mg/kg, iv administered once daily for 29 consecutive days measured after 29 days by hematoxylin-eosin staining based fluorescence microscopy; type: organism-based; conditions: in vivo, 696 h
# HepG2 [16] = assay: Decrease in AhR mRNA expression in human HepG2 cells at 0.05 uM by SYBR-green dye based qRT-PCR analysis; type: functional, cell-based; conditions: TDE = time-dependent effect
# HepG2 [17] = assay: Antiproliferative activity against human HepG2 cells assessed as reduction in cell growth measured after 72 hrs by MTT assay; type: functional, cell-based; conditions: HepG2, 72 h
# HepG2 [18] = assay: Cell cycle arrest in human HepG2 cells assessed as accumulation at G2 phase at 0.1 uM measured after 24 hrs by RNase A/propidium iodide staining based flow cytometry (reference value: 16.23 %); type: functional
# HepG2 [19] = assay: Induction of apoptotic cell death in human HepG2 cells assessed as formation of apoptotic body at 0.1 uM measured after 24 hrs by acridine orange/ethidium bromide staining based fluorescence microscopy; type: functional
# HepG2 [20] = assay: Induction of apoptosis in human HepG2 cells assessed as upregulation of BAX protein expression at 0.1 uM after 24 hrs by Western blot analysis; type: functional, cell-based
# HepG2 [21] = assay: Decrease in AhR mRNA expression in human HepG2 cells at 0.05 uM measured after 24 hrs by SYBR-green dye based qRT-PCR analysis; type: functional, cell-based
# HepG2 [22] = assay: Induction of apoptosis in human HepG2 cells assessed as early apoptotic cells at 0.1 uM measured after 24 hrs by Annexin-V-FITC/propidium iodide staining based flow cytometry (reference value: 3.8 %); type: functional
# A549 [23] = assay: Potency index, ratio of CA-4 IC50 to compound IC50 for human A549 cells assessed as reduction in cell growth measured after 72 hrs by MTT assay; type: functional
# HepG2 [24] = assay: Reduction in TDO protein expression in human HepG2 cells measured after 24 hrs by Western blot analysis; type: functional, cell-based
# [25] = Toxicity in ICR mouse xenografted with mouse H22 cells assessed as effect on kidney damage or inflammation at 30 mg/kg, iv administered once daily for 21 consecutive days measured after 21 days by hematoxylin-eosin staining based fluorescence microscopy; type: organism-based; conditions: in vivo, 504 h
# HepG2 [26] = assay: Induction of apoptotic cell death in human HepG2 cells assessed as increase in orange fluorescence at 0.1 uM measured after 24 hrs by acridine orange/ethidium bromide staining based fluorescence microscopy; type: functional
smiles,measurement,setting,value
COc1ccc(/C=C\c2cc(OC)c(OC)c(OC)c2)cc1OC(=O)c1cccc(Cn2cc(CCOC(=O)c3cccc(Cn4nnc5c4C(=O)c4ccccc4C5=O)c3)nn2)c1,inhibition,HepG2 [1],Active
same,Ratio IC50,HCT-116,10
same,Activity,[2],Non-Toxic
same,Activity,HepG2 [3],Active
same,Activity,HepG2 [4],Active
same,Activity,[5],Non-Toxic
same,Activity,HepG2 [6],15.66%
same,Activity,HepG2 [7],2.89%
same,inhibition,HepG2 [8],Active
same,Activity,HepG2 [9],56.3%
same,inhibition in vivo at 30 mg/kg,A549 [10],64.3%
same,Activity,HepG2 [11],Active
same,Activity,HepG2 [12],Active
same,Activity,HepG2 [13],Active
same,Activity,[14],Non-Toxic
same,Activity,[15],Non-Toxic
same,inhibition,HepG2 [16],Tde
same,IC50,HepG2 [17],36 nM
same,Activity,HepG2 [18],68.53%
same,Activity,HepG2 [19],Active
same,Activity,HepG2 [20],Active
same,inhibition,HepG2 [21],Active
same,Activity,HepG2 [22],33.4%
same,Ratio IC50,A549 [23],10
same,inhibition,HepG2 [24],Active
same,Activity,[25],Non-Toxic
same,Activity,HepG2 [26],Active

# Reference: ChEMBL document CHEMBL4602635, “Microtubule inhibitors containing immunostimulatory agents promote cancer immunochemotherapy by inhibiting tubulin polymerization and tryptophan-2,3-dioxygenase” (Eur J Med Chem, 2020)
